Laboratory results as given in paper PMC9490236, “Accurate de novo design of membrane-traversing macrocycles” (Cell, 2022).
Where a SMILES comes first, the peptide text is derived from it. [ ]: non-standard residue; d: D form. NMeF = CN[C@@H](Cc1ccccc1)C(=O)O; dNMeF = CN[C@H](Cc1ccccc1)C(=O)O; NMeL = CN[C@@H](CC(C)C)C(=O)O; dNMeL = CN[C@H](CC(C)C)C(=O)O; dNMeV = CN[C@@H](C(=O)O)C(C)C; NMeNle = CCCC[C@H](NC)C(=O)O; NMeM = CN[C@@H](CCSC)C(=O)O; Nle = CCCC[C@H](N)C(=O)O; dNMeA = CN[C@H](C)C(=O)O; Sar = CNCC(=O)O

Settings: for PAMPA_Papp_Avg / PAMPA_R1 / PAMPA_R3: PAMPA; for permeability in transwell assays: Caco-2

Row | SMILES | PAMPA_Papp_Avg | PAMPA_R1 | PAMPA_R3 | permeability in transwell assays
1 | CC(C)[C@H]1NC(=O)[C@H](C)NC(=O)[C@@H]2CCCN2C(=O)[C@H]2CCCN2C(=O)[C@@H](C(C)C)NC(=O)[C@H]2CCCN2C(=O)[C@@H](C)NC(=O)[C@@H](Cc2ccccc2)N(C)C(=O)[C@H](Cc2ccccc2)NC1=O [Design D9.35, DPRO DVAL DPRO PRO ALA DVAL PHE *DPHE DALA] (cyclo(A[dV]F[dNMeF][dA][dP][dV][dP]P)) | BQL | BQL | BQL | 
2 | CC(C)[C@@H]1NC(=O)[C@H](C)NC(=O)[C@H]2CCCN2C(=O)[C@@H](Cc2ccccc2)NC(=O)[C@H]2CCCN2C(=O)[C@@H]2CCCN2C(=O)[C@H](Cc2ccccc2)NC(=O)[C@H](C)NC(=O)[C@H]2CCCN2C1=O [Design D9.36, VAL DPRO ALA PHE PRO DPRO DPHE DPRO ALA] (cyclo(AFP[dP][dF][dP]AV[dP])) | BQL | BQL | BQL | 
3 | CC[C@H](C)[C@@H]1NC(=O)[C@@H](CC(C)C)NC(=O)[C@H]2CCCN2C(=O)[C@@H]2CCCN2C(=O)[C@H](C)NC(=O)[C@H]2CCCN2C(=O)[C@@H]2CCCN2C(=O)[C@H](C)NC(=O)[C@@H](C(C)C)N(C)C1=O [Design D9.37, DPRO DLEU ILE *DVAL ALA PRO DPRO ALA PRO] (cyclo(AP[dP]AP[dP][dL]I[dNMeV])) | BQL | BQL | BQL | 
4 | CC[C@@H](C)[C@H]1NC(=O)[C@H](CC(C)C)NC(=O)[C@@H](CC(C)C)NC(=O)[C@H](C(C)C)NC(=O)[C@@H]2CCCN2C(=O)[C@H](CC(C)C)N(C)C(=O)[C@@H](CC(C)C)NC(=O)[C@H](Cc2ccccc2)N(C)C(=O)[C@H]2CCCN2C1=O [Design D9.38, DPRO *PHE DLEU *LEU PRO VAL DLEU LEU DILE] (cyclo(L[dI][dP][NMeF][dL][NMeL]PV[dL])) | BQL | BQL | BQL | 
5 | CCCC[C@@H]1NC(=O)[C@H]2CCCN2C(=O)[C@H](C(C)C)NC(=O)[C@@H](CC(C)C)N(C)C(=O)[C@H](Cc2ccccc2)NC(=O)[C@H](CC(C)C)NC(=O)[C@@H](CC(C)C)N(C)C(=O)[C@@H]2CCCN2C(=O)[C@@H](CC(C)C)NC1=O [Design D9.40, DPRO MET DLEU PRO *DLEU LEU PHE *DLEU VAL] (cyclo(F[dNMeL]V[dP][Nle][dL]P[dNMeL]L)) | 2.38E-07 | 4.18E-07 | 1.63E-07 | 
6 | CC(C)C[C@@H]1NC(=O)[C@H](C)NC(=O)[C@H](C)NC(=O)[C@H]2CCCN2C(=O)[C@H](Cc2ccccc2)N(C)C(=O)[C@H]2CCCN2C(=O)[C@H](CC(C)C)N(C)C(=O)[C@@H](CC(C)C)N(C)C(=O)[C@H](Cc2ccccc2)NC(=O)[C@@H](CC(C)C)NC1=O [Design D10.8, PHE *DLEU *LEU DPRO *PHE DPRO ALA ALA LEU DLEU] (cyclo(AAL[dL]F[dNMeL][NMeL][dP][NMeF][dP])) | BQL | BQL | BQL | 
7 | CC[C@H](C)[C@@H]1NC(=O)[C@H](C(C)C)NC(=O)[C@@H](CC(C)C)N(C)C(=O)[C@H](Cc2ccccc2)N(C)C(=O)[C@H]2CCCN2C(=O)[C@H](C(C)C)NC(=O)[C@@H](C)NC(=O)[C@H](CC(C)C)N(C)C(=O)[C@H]2CCCN2C(=O)[C@@H](Cc2ccccc2)NC1=O [Design D10.9, DPRO *LEU DALA VAL DPRO *PHE *DLEU VAL ILE DPHE] (cyclo(I[dF][dP][NMeL][dA]V[dP][NMeF][dNMeL]V)) | BQL | BQL | BQL | 
8 | CC[C@@H](C)[C@H]1NC(=O)[C@H](CC(C)C)NC(=O)[C@H](CC(C)C)N(C)C(=O)[C@H]2CCCN2C(=O)[C@@H](CC(C)C)NC(=O)[C@@H]2CCCN2C(=O)[C@H](CC(C)C)N(C)C(=O)[C@@H](Cc2ccccc2)N(C)C(=O)[C@H](CC(C)C)N(C)C(=O)[C@H](CC(C)C)N(C)C1=O [Design D10.12, *LEU LEU DILE *LEU *LEU *DPHE *LEU PRO DLEU DPRO] (cyclo(L[dI][NMeL][NMeL][dNMeF][NMeL]P[dL][dP][NMeL])) | BQL | BQL | BQL | 
9 | CC(C)C[C@@H]1NC(=O)[C@H](CC(C)C)N(C)C(=O)[C@@H](Cc2ccccc2)N(C)C(=O)[C@H](Cc2ccccc2)NC(=O)[C@@H]2CCCN2C(=O)[C@@H](C)NC(=O)[C@@H]2CCCN2C(=O)[C@H](CC(C)C)N(C)C(=O)[C@H](CC(C)C)N(C)C(=O)[C@@H](C(C)C)NC1=O [Design D10.13, *LEU LEU DVAL *LEU *LEU PRO DALA PRO PHE *DPHE] (cyclo(F[dNMeF][NMeL]L[dV][NMeL][NMeL]P[dA]P)) | BQL | BQL | BQL | 
10 | CC(C)C[C@@H]1C(=O)N[C@H](CC(C)C)C(=O)N(C)[C@H](Cc2ccccc2)C(=O)N(C)[C@@H](CC(C)C)C(=O)N(C)[C@H](C)C(=O)N2CCC[C@H]2C(=O)N(C)[C@H](Cc2ccccc2)C(=O)N[C@@H](C(C)C)C(=O)N[C@H](CC(C)C)C(=O)N2CCC[C@H]2C(=O)N1C [Design D10.14, *DPHE VAL DLEU PRO *DLEU DLEU *DPHE *LEU *DALA PRO] (cyclo([NMeL][dNMeA]P[dNMeF]V[dL]P[dNMeL][dL][dNMeF])) | BQL | BQL | BQL | 
11 | CC(C)C[C@@H]1NC(=O)[C@@H](CC(C)C)N(C)C(=O)[C@@H]2CCCN2C(=O)[C@H](CC(C)C)N(C)C(=O)[C@@H](C)NC(=O)[C@@H](CC(C)C)N(C)C(=O)[C@@H]2CCCN2C(=O)[C@@H](CC(C)C)N(C)C(=O)[C@H](CC(C)C)N(C)C(=O)[C@H](Cc2ccccc2)NC1=O [Design D10.21, *LEU *DLEU PRO *DLEU DALA *LEU PRO *DLEU LEU PHE] (cyclo(F[NMeL][dNMeL]P[dNMeL][dA][NMeL]P[dNMeL]L)) | BQL | BQL | BQL | not permeable
12 | CC(C)C[C@@H]1NC(=O)[C@@H]2CCCN2C(=O)[C@H]2CCCN2C(=O)CN(C)C(=O)[C@@H](Cc2ccccc2)N(C)C(=O)[C@@H](CC(C)C)NC(=O)[C@@H](CC(C)C)N(C)C(=O)[C@@H]2CCCN2C(=O)[C@H](CC(C)C)N(C)C(=O)[C@H](CC(C)C)N(C)C1=O [Design D10.22, PRO LEU *LEU *LEU PRO *DLEU DLEU *DPHE *GLY DPRO] (cyclo(L[NMeL][NMeL]P[dNMeL][dL][dNMeF][Sar][dP]P)) | BQL | BQL | BQL | not permeable
13 | CC(C)C[C@@H]1NC(=O)[C@@H]2CCCN2C(=O)[C@H]2CCCN2C(=O)[C@@H](CC(C)C)N(C)C(=O)[C@@H](Cc2ccccc2)N(C)C(=O)[C@@H](CC(C)C)NC(=O)[C@@H](CC(C)C)N(C)C(=O)[C@@H]2CCCN2C(=O)[C@H](CC(C)C)N(C)C(=O)[C@H](CC(C)C)N(C)C1=O [Design D10.23, PRO LEU *LEU *LEU PRO *DLEU DLEU *DPHE *DLEU DPRO] (cyclo(L[NMeL][NMeL]P[dNMeL][dL][dNMeF][dNMeL][dP]P)) | BQL | BQL | BQL | not permeable
14 | CC(C)C[C@@H]1NC(=O)[C@@H]2CCCN2C(=O)[C@@H](Cc2ccccc2)N(C)C(=O)[C@H](CC(C)C)N(C)C(=O)[C@H](CC(C)C)N(C)C(=O)[C@@H](CC(C)C)N(C)C(=O)[C@H](C)NC(=O)[C@H](C(C)C)NC(=O)CNC(=O)[C@H](Cc2ccccc2)NC1=O [Design D10.24, PHE GLY VAL ALA *DLEU *LEU *LEU *DPHE PRO LEU] (cyclo(A[dNMeL][NMeL][NMeL][dNMeF]PLFGV)) | BQL | BQL | BQL | 
15 | CC[C@H](C)[C@@H]1NC(=O)[C@H](CCSC)N(C)C(=O)[C@H]2CCCN2C(=O)[C@H](CC(C)C)NC(=O)[C@@H](Cc2ccccc2)NC(=O)[C@@H]2CCCN2C(=O)[C@H]2CCCN2C(=O)[C@H]([C@@H](C)CC)NC(=O)[C@@H](CC(C)C)N(C)C(=O)[C@H](CC(C)C)N(C)C1=O [Design D10.36, ILE *LEU *DLEU ILE DPRO PRO DPHE LEU DPRO *MET] (cyclo([dF]L[dP][NMeM]I[NMeL][dNMeL]I[dP]P)) | BQL | BQL | BQL | 
16 | CC[C@@H](C)[C@H]1NC(=O)[C@H](C(C)C)NC(=O)[C@H](Cc2ccccc2)NC(=O)[C@H](C)NC(=O)[C@@H]2CCCN2C(=O)[C@H]2CCCN2C(=O)[C@H]2CCCN2C(=O)[C@H](CC(C)C)N(C)C(=O)[C@@H](C)N(C)C(=O)[C@H](C(C)C)NC1=O [Design D10.38, VAL *DALA *LEU DPRO DPRO PRO ALA PHE VAL DILE] (cyclo(AFV[dI]V[dNMeA][NMeL][dP][dP]P)) | BQL | BQL | BQL | 
17 | CCCC[C@@H]1NC(=O)[C@H](CC(C)C)NC(=O)[C@@H]2CCCN2C(=O)[C@H]2CCCN2C(=O)[C@@H](C)NC(=O)[C@H]2CCCN2C(=O)[C@@H](CC(C)C)NC(=O)[C@@H](C)N(C)C(=O)[C@H](CC(C)C)N(C)C(=O)[C@@H](C)N(C)C1=O [Design D10.40, MET *DALA *LEU *DALA DLEU DPRO DALA DPRO PRO LEU] (cyclo(L[Nle][dNMeA][NMeL][dNMeA][dL][dP][dA][dP]P)) | 7.09E-07 | 6.40E-07 | 6.95E-07 | 
18 | CCCC[C@H]1C(=O)N[C@@H]([C@@H](C)CC)C(=O)N2CCC[C@H]2C(=O)N2CCC[C@@H]2C(=O)N[C@H](CC(C)C)C(=O)N[C@@H]([C@@H](C)CC)C(=O)N2CCC[C@@H]2C(=O)N[C@H](Cc2ccccc2)C(=O)N[C@@H](C(C)C)C(=O)N(C)[C@H](CC(C)C)C(=O)N1C [Design D10.44, VAL *DLEU *MET ILE PRO DPRO DLEU ILE DPRO DPHE] (cyclo(IP[dP][dL]I[dP][dF]V[dNMeL][NMeNle])) | BQL | BQL | BQL | 
19 | CC[C@H](C)[C@@H]1NC(=O)[C@H](Cc2ccccc2)N(C)C(=O)[C@H]2CCCN2C(=O)[C@@H](CC(C)C)N(C)C(=O)[C@@H](Cc2ccccc2)NC(=O)[C@H](C(C)C)NC(=O)[C@H](CC(C)C)NC(=O)[C@H]2CCCN2C(=O)[C@H](CC(C)C)NC(=O)[C@@H]2CCCN2C1=O [Design D10.50, LEU VAL DPHE *DLEU DPRO *PHE ILE PRO LEU DPRO] (cyclo(IPL[dP]LV[dF][dNMeL][dP][NMeF])) | 6.28E-07 | 8.97E-07 | 6.88E-07 | 
